Source: US12624017B2, “Salt form of isoquinolinone type compound as rock inhibitor and preparation method therefor” (GUANGZHOU OCUSUN OPHTHALMIC BIOTECHNOLOGY CO., LTD., priority 2020, dated 2026)

System: New Zealand rabbits with normal intraocular pressure
Assay: Intraocular pressure reduction, normal intraocular pressure, eye drops in both eyes for 14 days (Operation I)
Type: in vivo, New Zealand white rabbits
Conditions: for Change in intraocular pressure: vs negative control
From the text: An intraocular pressure reduction effect and potential ocular toxicity of the compound of formula (I) were inspected with rabbits with normal intraocular pressure by repeated administration of eye drops for 14 days.
Male New Zealand white rabbits, aged 97 to 127 days, weighted 2.6-3.5 kg, purchased from Pizhou Oriental Breeding Co., Ltd.
The Male New Zealand white rabbits were randomly divided into 7 groups according to body weights, 6 rabbits/group. The animals in Groups 1 to 7 were administrated dropwise with a solvent/control/test article in both eyes in an administration volume of 50 μL/eye, once a day for 14 consecutive days, and the day of first administration was recorded as Day 1. The intraocular pressures of the animals were measured before administration, as well as at 1, 2, 4, 6, 8 and 10 h after administration, respectively. On Days 2 to 14, the intraocular pressures of animals in the K-115 administration group were measured at 1 h after daily administration; and intraocular pressures of the animals in the remaining groups were measured at 4 h after daily administration.

[1] = 2.0 mg/mL once a day, Day 2, 4 h after daily administration
[2] = 2.0 mg/mL once a day, Day 3, 4 h after daily administration
[3] = 2.0 mg/mL once a day, Day 4, 4 h after daily administration
[4] = 2.0 mg/mL once a day, Day 5, 4 h after daily administration
[5] = 2.0 mg/mL once a day, Day 6, 4 h after daily administration
[6] = 2.0 mg/mL once a day, Day 7, 4 h after daily administration
[7] = 2.0 mg/mL, Day 1, 1 h after administration
[8] = 2.0 mg/mL, Day 1, 2 h after administration
[9] = 2.0 mg/mL, Day 1, 4 h after administration
[10] = 2.0 mg/mL, Day 1, 6 h after administration
[11] = 2.0 mg/mL, Day 1, 8 h after administration
[12] = 2.0 mg/mL, Day 1, 10 h after administration
[13] = 2.0 mg/mL, Day 1, before administration
[14] = 4.0 mg/mL once a day, Day 2, 4 h after daily administration
[15] = 4.0 mg/mL once a day, Day 3, 4 h after daily administration
[16] = 4.0 mg/mL once a day, Day 4, 4 h after daily administration
[17] = 4.0 mg/mL once a day, Day 5, 4 h after daily administration
[18] = 4.0 mg/mL once a day, Day 6, 4 h after daily administration
[19] = 4.0 mg/mL once a day, Day 7, 4 h after daily administration
[20] = 4.0 mg/mL, Day 1, 1 h after administration
[21] = 4.0 mg/mL, Day 1, 2 h after administration
[22] = 4.0 mg/mL, Day 1, 4 h after administration
[23] = 4.0 mg/mL, Day 1, 6 h after administration
[24] = 4.0 mg/mL, Day 1, 8 h after administration
[25] = 4.0 mg/mL, Day 1, 10 h after administration
[26] = 4.0 mg/mL, Day 1, before administration
[27] = 8.0 mg/mL once a day, Day 2, 4 h after daily administration
[28] = 8.0 mg/mL once a day, Day 3, 4 h after daily administration
[29] = 8.0 mg/mL once a day, Day 4, 4 h after daily administration
[30] = 8.0 mg/mL once a day, Day 5, 4 h after daily administration
[31] = 8.0 mg/mL once a day, Day 6, 4 h after daily administration
[32] = 8.0 mg/mL once a day, Day 7, 4 h after daily administration
[33] = 8.0 mg/mL, Day 1, 1 h after administration
[34] = 8.0 mg/mL, Day 1, 2 h after administration
[35] = 8.0 mg/mL, Day 1, 4 h after administration
[36] = 8.0 mg/mL, Day 1, 6 h after administration
[37] = 8.0 mg/mL, Day 1, 8 h after administration
[38] = 8.0 mg/mL, Day 1, 10 h after administration
[39] = 8.0 mg/mL, Day 1, before administration

SMILES: Cc1ccc(C(=O)OCn2cc(C)c3c(S(=O)(=O)N4CC[C@H](N)C4)cccc3c2=O)c(C)c1 [Compound of formula (I)]
- Change in intraocular pressure (1.0 mg/mL, Day 1, before administration): −0.05 mmHg
- Average intraocular pressure in both eyes [1]: 7.03 mmHg
- Change in intraocular pressure [1]: 4.05 mmHg
- Average intraocular pressure in both eyes [2]: 7.25 mmHg
- Change in intraocular pressure [2]: 3.14 mmHg
- Average intraocular pressure in both eyes [3]: 6.86 mmHg
- Change in intraocular pressure [3]: 3.75 mmHg
- Average intraocular pressure in both eyes [4]: 6.47 mmHg
- Change in intraocular pressure [4]: 4.5 mmHg
- Average intraocular pressure in both eyes [5]: 5.92 mmHg
- Change in intraocular pressure [5]: 3.39 mmHg
- Average intraocular pressure in both eyes [6]: 5.78 mmHg
- Change in intraocular pressure [6]: 4.28 mmHg
- Change in intraocular pressure (2.0 mg/mL once a day, Day 8, 4 h after daily administration): 4.53 mmHg
- Change in intraocular pressure (2.0 mg/mL once a day, Day 9, 4 h after daily administration): 3.72 mmHg
- Change in intraocular pressure (2.0 mg/mL once a day, Day 10, 4 h after daily administration): 3.81 mmHg
- Change in intraocular pressure (2.0 mg/mL once a day, Day 11, 4 h after daily administration): 3.66 mmHg
- Change in intraocular pressure (2.0 mg/mL once a day, Day 12, 4 h after daily administration): 3.5 mmHg
- Change in intraocular pressure (2.0 mg/mL once a day, Day 13, 4 h after daily administration): 4.28 mmHg
- Change in intraocular pressure (2.0 mg/mL once a day, Day 14, 4 h after daily administration): 3.91 mmHg
- Average intraocular pressure in both eyes [7]: 8.56 mmHg
- Change in intraocular pressure [7]: 1.75 mmHg
- Average intraocular pressure in both eyes [8]: 7.47 mmHg
- Change in intraocular pressure [8]: 3.5 mmHg
- Average intraocular pressure in both eyes [9]: 7.47 mmHg
- Change in intraocular pressure [9]: 3.84 mmHg
- Average intraocular pressure in both eyes [10]: 7.25 mmHg
- Change in intraocular pressure [10]: 4.69 mmHg
- Average intraocular pressure in both eyes [11]: 8.44 mmHg
- Change in intraocular pressure [11]: 4.53 mmHg
- Average intraocular pressure in both eyes [12]: 9.67 mmHg
- Change in intraocular pressure [12]: 4.75 mmHg
- Average intraocular pressure in both eyes [13]: 9.67 mmHg
- Change in intraocular pressure [13]: 0.22 mmHg
- Average intraocular pressure in both eyes [14]: 6.53 mmHg
- Change in intraocular pressure [14]: 4.55 mmHg
- Average intraocular pressure in both eyes [15]: 5.58 mmHg
- Change in intraocular pressure [15]: 4.81 mmHg
- Average intraocular pressure in both eyes [16]: 5.53 mmHg
- Change in intraocular pressure [16]: 5.08 mmHg
- Average intraocular pressure in both eyes [17]: 6.61 mmHg
- Change in intraocular pressure [17]: 4.36 mmHg
- Average intraocular pressure in both eyes [18]: 5.47 mmHg
- Change in intraocular pressure [18]: 3.84 mmHg
- Average intraocular pressure in both eyes [19]: 5.56 mmHg
- Change in intraocular pressure [19]: 4.5 mmHg
- Change in intraocular pressure (4.0 mg/mL once a day, Day 8, 4 h after daily administration): 4.53 mmHg
- Change in intraocular pressure (4.0 mg/mL once a day, Day 9, 4 h after daily administration): 3.97 mmHg
- Change in intraocular pressure (4.0 mg/mL once a day, Day 10, 4 h after daily administration): 4.67 mmHg
- Change in intraocular pressure (4.0 mg/mL once a day, Day 11, 4 h after daily administration): 3.86 mmHg
- Change in intraocular pressure (4.0 mg/mL once a day, Day 12, 4 h after daily administration): 3.64 mmHg
- Change in intraocular pressure (4.0 mg/mL once a day, Day 13, 4 h after daily administration): 4.36 mmHg
- Change in intraocular pressure (4.0 mg/mL once a day, Day 14, 4 h after daily administration): 4.64 mmHg
- Average intraocular pressure in both eyes [20]: 10.44 mmHg
- Change in intraocular pressure [20]: −0.13 mmHg
- Average intraocular pressure in both eyes [21]: 7.81 mmHg
- Change in intraocular pressure [21]: 3.16 mmHg
- Average intraocular pressure in both eyes [22]: 6.47 mmHg
- Change in intraocular pressure [22]: 4.84 mmHg
- Average intraocular pressure in both eyes [23]: 6.22 mmHg
- Change in intraocular pressure [23]: 5.72 mmHg
- Average intraocular pressure in both eyes [24]: 7.33 mmHg
- Change in intraocular pressure [24]: 5.64 mmHg
- Average intraocular pressure in both eyes [25]: 8.64 mmHg
- Change in intraocular pressure [25]: 5.78 mmHg
- Average intraocular pressure in both eyes [26]: 9.67 mmHg
- Change in intraocular pressure [26]: 0.22 mmHg
- Average intraocular pressure in both eyes [27]: 6.33 mmHg
- Change in intraocular pressure [27]: 4.75 mmHg
- Average intraocular pressure in both eyes [28]: 5.78 mmHg
- Change in intraocular pressure [28]: 4.61 mmHg
- Average intraocular pressure in both eyes [29]: 5.97 mmHg
- Change in intraocular pressure [29]: 4.64 mmHg
- Average intraocular pressure in both eyes [30]: 6.42 mmHg
- Change in intraocular pressure [30]: 4.55 mmHg
- Average intraocular pressure in both eyes [31]: 5.56 mmHg
- Change in intraocular pressure [31]: 3.75 mmHg
- Average intraocular pressure in both eyes [32]: 5.28 mmHg
- Change in intraocular pressure [32]: 4.78 mmHg
- Change in intraocular pressure (8.0 mg/mL once a day, Day 8, 4 h after daily administration): 5.59 mmHg
- Change in intraocular pressure (8.0 mg/mL once a day, Day 9, 4 h after daily administration): 4.25 mmHg
- Change in intraocular pressure (8.0 mg/mL once a day, Day 10, 4 h after daily administration): 4.19 mmHg
- Change in intraocular pressure (8.0 mg/mL once a day, Day 11, 4 h after daily administration): 4.16 mmHg
- Change in intraocular pressure (8.0 mg/mL once a day, Day 12, 4 h after daily administration): 3.97 mmHg
- Change in intraocular pressure (8.0 mg/mL once a day, Day 13, 4 h after daily administration): 4.72 mmHg
- Change in intraocular pressure (8.0 mg/mL once a day, Day 14, 4 h after daily administration): 4.03 mmHg
- Average intraocular pressure in both eyes [33]: 7.69 mmHg
- Change in intraocular pressure [33]: 2.62 mmHg
- Average intraocular pressure in both eyes [34]: 6.39 mmHg
- Change in intraocular pressure [34]: 4.58 mmHg
- Average intraocular pressure in both eyes [35]: 7.06 mmHg
- Change in intraocular pressure [35]: 4.25 mmHg
- Average intraocular pressure in both eyes [36]: 7.11 mmHg
- Change in intraocular pressure [36]: 4.83 mmHg
- Average intraocular pressure in both eyes [37]: 7.22 mmHg
- Change in intraocular pressure [37]: 5.75 mmHg
- Average intraocular pressure in both eyes [38]: 7.97 mmHg
- Change in intraocular pressure [38]: 6.45 mmHg
- Average intraocular pressure in both eyes [39]: 10.17 mmHg
- Change in intraocular pressure [39]: −0.28 mmHg
- Efficacy of single administration (conclusion) (all tested doses (0.5 to 8.0 mg/mL), compared with K-115): better efficacy
- Intraocular pressure reduction effect on 14 days of consecutive administration (conclusion) (dose of 0.5 mg/mL, compared with K-115): significant intraocular pressure reduction effect
